According to publication PMC8942850, “Boron clusters as broadband membrane carriers” (Nature, 2022):

Columns and labels:
[1] = HPTS/DPX transport assay in zwitterionic EYPC vesicles; type: in vitro ADME; conditions: for Y Conventional / Y Reverse: Extended Data Fig. 4d; for Ymax (%) maximal activity, carrier activity: 13 µM lipid, 10 mM Tris, 107 mM NaCl, HPTS fluorescence
Description: The well-established HPTS/DPX assay, which uses 8-hydroxypyrene-1,3,6-trisulfonate (HPTS) and p-xylene-bis-pyridinium (DPX), was implemented to monitor peptide-transport activation (Fig. 2a). […] A surfactant (Triton X-100) was added at the end of the experiment (t = 600 s) to release all vesicle content and normalize the fluorescence intensity data.
Fig. 2 Carrier activity obtained from the HPTS/DPX assay. a, Schematic representation of the transport of otherwise impermeable analytes facilitated by superchaotropic cluster anions with encapsulated HPTS/DPX probe/quencher pair used for signalling. […] Concentrations of carrier and cargo, when fixed, were 40 and 20 µM, respectively, unless explicitly stated. Source data
A thin lipid film was prepared by evaporating a lipid solution with a stream of nitrogen and then dried in vacuo overnight.
Fluorescence intensities were normalized to fractional emission as I(t) = (It − I0)/(I∞ − I0), where I0 = It before cluster addition and I∞ = It after lysis.
In the activator measurements, in which different activators were tested with the same cargo, the activator efficiency (Ea) is determined from their ability to activate the transport of an impermeable cargo molecule and is characterized by Ymax, its maximal activity, and EC50, the effective activator concentration. A potent activator reaches high Ymax at low EC50. To reflect both factors, the activator efficiency is defined as Ea = Ymax × (pEC50/fa), where pEC50 is the negative logarithm of EC50.
In the transport measurements, in which different types of cargo were tested with the same activator, the transport efficiency (Et) reports on the sensitivity of the cargo for being transported and is described by Ymax, the maximal activity, and EC50, the effective cargo concentration. An easily accessible cargo reaches high Ymax at low EC50. The transport efficiency is defined as a composition of both parameters according to Et = Ymax × (pEC50/ft), where pEC50 is the negative logarithm of EC50.
Extended Data Fig. 3 Transport activity. a, Transport activity, Y, in EYPC⊃HPTS/DPX vesicles as a function of cluster concentration at constant cargo concentration (WR7, 20 µM). b, Transport activity, Y, for B12Br12^2− (40 µM) in EYPC⊃HPTS/DPX vesicles as a function of the concentration of different cargo types; red lines correspond to the resulting fit with the Hill equation. Source data

[2] = U-tube transport experiment across a bulk chloroform layer; conditions: trans: 2 mM HPTS, pH 7.4
Text: U-tube transport experiments, across a bulk chloroform layer, unambiguously confirmed that the brominated cluster served as a non-covalent carrier across a hydrophobic bulk barrier (Extended Data Fig. 2a, b). To quantitatively characterize the transport efficiency of the new cluster carriers, the normalized fluorescence responses in the vesicle experiments (Fig. 2b) were plotted against cluster concentration to produce dose–response curves (Fig. 2c and Extended Data Fig. 3a). […] This activity rivals the pyrenebutyrate (1) gold standard in the field (Ea ≈ 5)[18], which we used throughout as a control.
The U-tubes were home-made, similarly to those of Rebek and co-workers[52] and Matile and co-workers[19], and consisted of a small beaker with a central glass barrier separating the two aqueous phases, namely cis ([…]) and trans (receiving phase), but enabling the placement of an interfacing chloroform layer below the cis and trans phases. A 3 ml portion of CHCl3 was located in the U-tube and 1 ml of the cis and trans phases were added. The organic phase was stirred at 700 r.p.m. at room temperature. Aliquots (20 μl) from the aqueous trans phase were taken at different times, diluted to 450 μl with buffer (10 mM Tris, 107 mM NaCl, pH 7.4) and measured by fluorescence. […]

Substance: B12Br12^2−
- Ea activator efficiency ([1]; Ea = Ymax × (pEC50/fa), fa = 20.6, WR7 (20 μM) cargo, 10% error (SD)): 6.1
- Y Conventional ([1]; [B12Br12] 1.00E-04 M): 0.7375
- Y Reverse ([1]; [B12Br12] 1.00E-04 M): 0.7289
- Y Conventional ([1]; [B12Br12] 1.00E-05 M): 0.08156
- Y Reverse ([1]; [B12Br12] 1.00E-05 M): 0.07644
- Y Conventional ([1]; [B12Br12] 1.00E-08 M): 0.00214
- Y Reverse ([1]; [B12Br12] 1.00E-08 M): 9.09E-04
- Y Conventional ([1]; [B12Br12] 1.20E-04 M): 0.8093
- Y Reverse ([1]; [B12Br12] 1.20E-04 M): 0.8173
- Y Conventional ([1]; [B12Br12] 1.50E-04 M): 0.8756
- Y Conventional ([1]; [B12Br12] 2.00E-05 M): 0.1885
- Y Reverse ([1]; [B12Br12] 2.00E-05 M): 0.1615
- Y Conventional ([1]; [B12Br12] 2.50E-04 M): 0.8813
- Y Reverse ([1]; [B12Br12] 2.50E-04 M): 0.8905
- Y Conventional ([1]; [B12Br12] 3.00E-05 M): 0.3307
- Y Reverse ([1]; [B12Br12] 3.00E-05 M): 0.3469
- Y Conventional ([1]; [B12Br12] 4.00E-05 M): 0.4335
- Y Conventional ([1]; [B12Br12] 5.00E-06 M): 0.03975
- Y Conventional ([1]; [B12Br12] 6.00E-05 M): 0.5294
- Y Reverse ([1]; [B12Br12] 6.00E-05 M): 0.5266
- Y Conventional ([1]; [B12Br12] 8.00E-05 M): 0.6371
- Ymax (%) maximal activity, carrier activity ([1]; carrier concentration varied, WR7 (20 μM) as common cargo, EYPC⊃HPTS/DPX vesicles, pH 7.4, Hill analysis, 10% error (SD) unless stated, n.a. = no detectable activity, d.l. = dye leakage, no determination possible): 95 ± 5%
- Ymax (%) maximal activity, carrier activity ([1]; carrier concentration varied, WR7 (20 μM) as common cargo, EYPC⊃HPTS/DPX vesicles, pH 7.4, Hill analysis, 10% error (SD) unless stated, n.a. = no detectable activity, d.l. = dye leakage, no determination possible, listed as brominated cluster): 95%
- EC50 ([1]; read-out: EC50 (μM) effective carrier concentration to reach 50% of Ymax, carrier concentration varied, WR7 (20 μM) as common cargo, EYPC⊃HPTS/DPX vesicles, pH 7.4, Hill analysis, 10% error (SD) unless stated, n.a. = no detectable activity, d.l. = dye leakage, no determination possible): 48 µM
- Transport of DPX across chloroform, without peptide cargo ([2]; cis: 40 μM cluster and 20 mM DPX): faster and more efficient transport of DPX
- Transport of DPX across chloroform, with peptide cargo ([2]; cis: 40 μM cluster, 20 μM WR7, 20 mM DPX, 10 mM Tris, 107 mM NaCl, HPTS quenching): the fastest and most efficient transport of DPX
